# Assay results published in ChEMBL document CHEMBL1649078, “Novel antiviral C5-substituted pyrimidine acyclic nucleoside phosphonates selected as human thymidylate kinase substrates” (J Med Chem, 2011).
# pEC50: −log10 of the molar value.
# Test system: Vaccinia virus
# Assay: Antiviral activity against Vaccinia virus infected in human HEL cells assessed as reduction of virus-induced cytopathogenicity after 7 days
# Format: functional, organism-based
# Conditions: Orthopoxvirus vaccinia, 168 h
row,SMILES,pEC50
1,CC(C)(C)C(=O)OCOP(=O)(C/C=C/Cn1cc(Br)c(=O)[nH]c1=O)OCOC(=O)C(C)(C)C,4.48
2,Cc1cn(C/C=C/CP(=O)(OCOC(=O)C(C)(C)C)OCOC(=O)C(C)(C)C)c(=O)[nH]c1=O,4.52
3,Nc1nc2c(ncn2COC(CO)CO)c(=O)[nH]1 [GANCICLOVIR],< 4.00
4,O=c1[nH]c(=O)n([C@H]2C[C@H](O)[C@@H](CO)O2)cc1/C=C/Br [BRIVUDINE],5.82
5,CC(C)(C)C(=O)OCOP(=O)(C/C=C\Cn1cc(Br)c(=O)[nH]c1=O)OCOC(=O)C(C)(C)C,4.05
6,Cc1cn(C/C=C\CP(=O)(OCOC(=O)C(C)(C)C)OCOC(=O)C(C)(C)C)c(=O)[nH]c1=O,< 4.40
7,Nc1ccn(C[C@@H](CO)OCP(=O)(O)O)c(=O)n1 [CIDOFOVIR],5.22
